Test results as given in patent US5795897A, “Oxohexyl methylxanthine compounds” (Cell Therapeutics, Inc., priority 1994, dated 1998).
“Also recorded” adds a separate entry of the source.

Assays:
TNF = conditions: normal volunteers; cited from earlier work
[1] = test system: polymorphonuclear leukocytes; conditions: in response to a stimulator of chemotaxis; U.S. Pat. No. 4,636,507; cited from earlier work
certain cytokines = conditions: U.S. Pat. Nos. 4,965,271 and 5,096,906; cited from earlier work
PA and DAG = assay: Elevation of PA and DAG upon primary stimulus; assay type: cell-based; conditions: e.g. interleukin-1 or TNF
Experimental: (§1) One in vitro assay measures inhibition of the relevant enzymes lysophosphatidic acid acyltransferase (LPAAT) and phosphatidic acid phosphoryl hydrolase (PAPH). The assay involves incubating of target cells with a primary stimulus (e.g., a variety of cytokines, growth factors, oncogene products, putative therapeutic agents, irradiation, viral infection, toxins, bacterial infection and the products thereof, and any stimulus which, if not counteracted, has a deleterious effect on the target cell) in the presence or absence of 1-(5-oxohexyl)-3-methylxanthineat varying dosage levels. Target cells include, for example, subcellular entities, such as, microsomes derived from mesenchymal and/or ectodermal cells, particularly microsomes from marrow stromal cells or human or rat mesangial cells; microsomes or synaptosomes derived from bovine brain; plasma membrane-enriched microsomes or plasma membranes derived as described in Bursten et al. (J. Biol. Chem. […]:20732-20743, 1991) detergent-solubilized microsomes; synaptosomes, and membranes or other cell preparations solubilized using, for example, NP-40,Miranal, SDS or other neutral detergents; and detergent-solubilized or further purified preparations of cell proteins, including the proteins LPAAT and/or PAPH. […] Thus, the relevant unsaturated (non-arachidonic) PA and DAG subspecies may be detected. […]

[2] = test system: U937 cells to TNF activated human umbilical vein endothelial cells (HUVEC); assay: Adhesion of U937 cells to TNF-activated HUVEC; assay type: cell-based; conditions: FIG. 2
Experimental: This example illustrates the effects of CT1505 to inhibit adhesion of U937 cells to TNF-activated HUVEC cells In this experiment, HUVEC cells were induced with human TNF-α(20ng/ml) and incubated with drug (CT1505) at varying concentrations for 14-16 hrs. U937 cells (a human monocyte cell line) were incubated and labeled with BCECF (10 μg/ml), a fluorescent dye. The U937 cell preparation (2.5×10^4 cells per well) was layered on top of the activated HUVEC cells. The cells were reverse spun to remove partially adhering and nonadhering U937 cell. The adherent U937 cells were measured by fluorescence on a fluorescent plate reader.

[3] = test system: L929 murine fibroblast cells; assay: L929 TNF cytotoxicity assay (protection, fluorescent viability dye); assay type: cell-based; conditions: TNF-α 500 pg/ml, 40 hrs at 37° C; 2 hrs preincubation; FIG. 1
Experimental: The cells plus (or minus) drug plus TNF were incubated for 40 hrs at 37° C.

NIH-3T3 Ras cells = assay: Cytotoxicity on Ras transformed NIH-3T3 cells; assay type: cell-based; conditions: various concentrations, FIG. 4
Experimental: (§2) The cells were treated with various concentrations of CT1505 (in the mM range on a log scale) and later stained for cell viability with a fluorescence stain.
(§3) 1-(5-oxohexyl)-3-methylxanthine was investigated for cytotoxicity to determine appropriate doses for biological activity assays and to prevent cytotoxic reactions in in vitro assays when characterizing activity. Cells (e.g., NIH-3T3, Ras transformed 3T3 cells, malignant melanoma LD2 cells, etc.) are added to microtiter plates and drug is added about two days after plating. Cell viability is determined using a fluorescent viability stain (2', 7'-bis-(2-carboroxyethyl)-5-(and -6)-carboxyfluorescein acetoxymethyl ester, BCECF excitation 488 nm and emission 525 nm) 24,48 or 72 hours after addition of the drug.
(§4) This example illustrates that CT1505 has cytotoxic activity for NIH-3T3 and NIH-Ras transformed tumor cells. Cytotoxicity of the cells was determined with concentrations of CT1505 up to 1.0 mM (see FIG. 4).

[4] = test system: LD-2 cells, a human malignant melanoma cell line; assay: Cytotoxicity on LD-2 cells; assay type: cell-based; conditions: various concentrations, FIG. 3
Experimental: The cells were treated with various concentrations of CT1505 and later stained for cell viability with a fluorescence stain.
as §3
This example illustrates that CT1505 has cytotoxic activity for the LD-2 tumor cell line. Cytotoxicity of LD-2 cells was determined with concentrations of CT1505 up to 1.0 mM (see FIG. 3).

NIH-3T3 cells = assay: Cytotoxicity on NIH-3T3 cells; assay type: cell-based; conditions: various concentrations, FIG. 4
Experimental: as §2, §3, §4

[5] = test system: synaptosomes stimulated with acetylcholine and/or epinephrine (PA and DAG); assay: PA and DAG levels in stimulated synaptosomes; assay type: biochemical
Experimental: as §1

[6] = test system: PBMC (peripheral blood mononuclear cells); assay: Mixed lymphocyte reaction; assay type: cell-based, human; conditions: CT1505 versus PTX, FIG. 5
Description: Various in vitro assays can be used to measure effects of 1-(5-oxohexyl)-3methylxanthine to module immune activity and have antitumor activity using a variety of cellular types. For example, a mixed lymphocyte reaction (MLR) provides a valuable screening tool to determine biological activity of 1-(5-oxohexyl)-3-methylxanthine. In the MLR, PBMCs (peripheral blood mononuclear cells) are obtained by drawing whole blood from healthy volunteers in a heparinized container and diluted with an equal volume of hanks balanced salt solution (HBSS). This mixture is layered on a sucrose density gradient, such as a Ficoll-Hypaque® gradient (specific gravity 1.08), and centrifuged at 1000×g for 25 minutes at room temperature or cooler. PBMC are obtained from a band at a plasma-Ficoll interface, separated and washed at least twice in a saline solution, such as HBSS. Contaminating red cells are lysed, such as by ACK lysis for 10 min at 37° C., and the PBMCs are washed twice in HBSS. The pellet of purified PBMCs is resuspended in complete medium, such as RPMI 1640 plus 20% human inactivated serum. Proliferative response of PBMC to allogeneic stimulation is determined in a two-way MLR performed in a 96-well microtiter plate. […] At the conclusion of the incubation tritiated thymidine is added (for example, 1 μCi/well of 40 to 60 Ci/mmole) and proliferation determined by liquid scintillation counting. […]

[7] = U.S. Pat. Nos 4,515,795 and 4,576,947; cited from earlier work

SMILES	TNF levels (TNF)	chemotaxis in polymorphonuclear leukocytes [1]	activity of certain cytokines to affect chemotaxis (certain cytokines)	effect on elevation of PA and DAG levels (PA and DAG)	concentration range of adhesion inhibitory activity ([2]; TNF-activated HUVEC)	inhibition of adhesion of U937 cells to activated HUVEC ([2]; TNF-α 20 ng/ml, 14-16 hrs)	protection of fibroblast cells from TNF cytotoxicity [3]	cytotoxicity (NIH-3T3 Ras cells)	cytotoxicity [4]	cytotoxicity (NIH-3T3 cells)	effect on enhanced PA and DAG levels [5]	immune modulating activity [6]	cerebral blood flow [7]
CC(=O)CCCCn1c(=O)c2c(ncn2C)n(C)c1=O [PTX, 1-(5-oxohexyl)-3,7-dimethylxanthine]	TNF levels were higher among PTX recipients	stimulate chemotaxis	inhibit activity of certain cytokines										
CC(=O)CCCCn1c(=O)c2[nH]cnc2n(C)c1=O [CT1505, 1-(5-oxohexyl)-3-methylxanthine]				reverses this elevation	tenths of mM	inhibits adhesion of U937 cells to TNF activated human umbilical vein endothelial cells; also recorded: inhibited the inflammatory response of the activated HUVEC cells to adhere U937 monocytes in a dose response fashion	protected the fibroblast cells from TNF cytotoxicity better than PTX and much better than the control cells	cytotoxic at higher concentrations	cytotoxic at higher concentrations	cytotoxic at higher concentrations	able to decrease enhanced levels of a relevant PA and DAG	more potent immune modulating activity with CT1505 than with PTX; also recorded: more potent drug for cause immune modulating activity than was PTX	
CC(O)CCCCn1c(=O)c2c(ncn2C)n(C)c1=O (centres unmarked) [M1, 1-(5-hydroxyhexyl)-3,7-dimethylxanthine]		stimulate chemotaxis											increasing cerebral blood flow
